{
  "source": "patent US20110028566A1",
  "about": "“COMPOSITIONS AND PRODUCTS CONTAINING CYCLOALIPHATIC DIOL ANTIMICROBIAL AGENTS AND METHODS OF USING THE COMPOSITIONS AND PRODUCTS” (EASTMAN CHEMICAL COMPANY, priority 2009, published 2011)",
  "assay_in_all_cases": "Microbial challenge testing in BPW",
  "type_in_all_cases": "cell-based",
  "key": {"Pseudomonas aeruginosa": {"test_system": "Pseudomonas aeruginosa", "protocol": "(§1) The microorganisms used in challenge tests are given in Table 3, designated as either ATCC (American Type Culture Collection) or wild type. These wild type organisms were problematic organisms previously isolated from chemical products. In the description for each organism, the bacteria are indicated as either GN (Gram negative) or GP (Gram positive).\n(§2) All of the microorganisms were grown in Tryptose Soy Broth (TSB), DIFCO™ available from Becton, Dickinson and Company, containing 1% dextrose. Aspergillus niger and Candida albicans were incubated at 22° C.±2° C. for at least 96 hours. All bacteria were incubated at 35° C.±2° C. in a humidified incubator for at least 96 hours.\n(§3) The following procedure was followed to determine the amount of each challenge material (inoculum broth) required to produce a 10^8 cfu/mL challenge, which is equivalent to a final test-sample microbial concentration of 10^5 to 10^6 cfu (colony-forming units)/mL.\n(§4) Using a sterile serological pipette, 1 mL of the growth from each TSB culture was transferred into tubes containing 9 mL phosphate buffer (pH 7.2) and mixed thoroughly. This process was repeated to make serial 1:10 dilutions. Then 0.1 mL of each sample and dilution was inoculated onto agar plates to produce the equivalent of a further 1:10 dilution. C. albicans and A. niger were inoculated onto SDA and bacteria were inoculated onto Plate Count Agar (PCA), DIFCO™ available from Becton, Dickinson and Company. The 0.1 mL aliquots were evenly distributed on the plates using the spread-plate technique. The spread-plate technique is performed by spreading the aliquot over the entire plate surface using a sterile spreading rod while rotating the plate with a rotary auto-plater. After the inoculum was absorbed completely, each plate was inverted and incubated (fungi at 22° C.±2° C. and bacteria at 35° C.±2° C.).\n(§5) After incubation for at least 48 hours, colonies that had developed on the agar plates were counted and recorded with the corresponding dilution. If counting had to be delayed temporarily, plates were refrigerated, preferably no more than 24 hours, until they could be counted. The number of cfu/mL was determined by multiplying the count by the dilution factor for that particular plate.\n(§6) Turbidity in Nepholemetric Turbidity Units (NTU) was measured for each serial dilution using the HF-Micro 100 Model Turbidimeter. For each microorganism, the plate counts were compared to the turbidity readings.\n(§7) Control substrates (“broth alone”) were prepared for each microorganism separately in triplicate by adding 13.5 mL of BPW (pH 7.0) containing 1% (w/v) dextrose to each 20-mL glass tube; then adding 1.5 mL challenge material to produce a final concentration at time zero of 10^5 to 10^6 cfu/mL and a total volume of 15 mL.\n(§8) Test sample substrates were prepared containing each test material (1,4-CHDM, etc) or combination of test materials at the concentrations shown in Tables 5 and 6. Sample substrates were prepared in triplicate, except those substrates containing PE or CG which were prepared in duplicate. Substrates were prepared by adding BPW containing 1% (w/v) dextrose to each 20-mL glass tube, then adding the test material in the amount appropriate to achieve the desired weight/volume percent (g/100 mL) and to obtain a total volume of BPW with dextrose and test material of 13.5 mL. Then 1.5 mL challenge material was added to produce a final concentration at time zero of 10^5 to 10^6 cfu/mL of the respective organism and a total test sample substrate volume of 15 mL.\n(§9) After mixing, all challenged substrates were incubated at 35° C.±2° C. for 14 days and then at ambient room temperature."}, "Aeromonas sp.": {"test_system": "Aeromonas sp.", "protocol": "as §1, §2, §3, §4, §5, §6, §7, §8, §9"}, "Streptococcus mutans": {"test_system": "Streptococcus mutans", "protocol": "as §1, §2, §3, §4, §5, §6, §7, §8, §9"}, "Bacillus subtilis": {"test_system": "Bacillus subtilis", "protocol": "as §1, §2, §3, §4, §5, §6, §7, §8, §9"}, "[1]": {"test_system": "Staphylococcus epidermidis", "protocol": "as §1, §2, §3, §4, §5, §6, §7, §8, §9"}, "Staphylococcus aureus": {"test_system": "Staphylococcus aureus", "protocol": "as §1, §2, §3, §4, §5, §6, §7, §8, §9"}},
  "data": [
    {"compound": "OCC1CCCC(CO)C1", "note": "(stereo not shown) [1,3-CHDM]", "values": [
      {"measurement": "Grade code P. aeruginosa", "setting": "Pseudomonas aeruginosa; 0.5%, 3 days incubation", "result": "5 (More than 10,000 colonies estimated (thus >100,000 cfu/mL))"},
      {"measurement": "Grade code P. aeruginosa", "setting": "Pseudomonas aeruginosa; 0.5%, 13 days incubation", "result": "5 (More than 10,000 colonies estimated (thus >100,000 cfu/mL))"},
      {"measurement": "Grade code P. aeruginosa", "setting": "Pseudomonas aeruginosa; 0.5%, 30 days incubation", "result": "5 (More than 10,000 colonies estimated (thus >100,000 cfu/mL))"},
      {"measurement": "Grade code P. aeruginosa", "setting": "Pseudomonas aeruginosa; 1.25%, 3 days incubation", "result": "4 (1001 to 10,000 colonies (thus 10,000 cfu/mL to 100,000 cfu/mL))"},
      {"measurement": "Grade code P. aeruginosa", "setting": "Pseudomonas aeruginosa; 1.25%, 13 days incubation", "result": "4 (1001 to 10,000 colonies (thus 10,000 cfu/mL to 100,000 cfu/mL))"},
      {"measurement": "Grade code P. aeruginosa", "setting": "Pseudomonas aeruginosa; 1.25%, 30 days incubation", "result": "4 (1001 to 10,000 colonies (thus 10,000 cfu/mL to 100,000 cfu/mL))"},
      {"measurement": "Grade code P. aeruginosa", "setting": "Pseudomonas aeruginosa; 2.5%, 3 days incubation", "result": "4 (1001 to 10,000 colonies (thus 10,000 cfu/mL to 100,000 cfu/mL))"},
      {"measurement": "Grade code P. aeruginosa", "setting": "Pseudomonas aeruginosa; 2.5%, 13 days incubation", "result": "4 (1001 to 10,000 colonies (thus 10,000 cfu/mL to 100,000 cfu/mL))"},
      {"measurement": "Grade code P. aeruginosa", "setting": "Pseudomonas aeruginosa; 2.5%, 30 days incubation", "result": "4 (1001 to 10,000 colonies (thus 10,000 cfu/mL to 100,000 cfu/mL))"},
      {"measurement": "Grade code Aeromonas sp", "setting": "Aeromonas sp.; 0.5%, 3 days incubation", "result": "5 (More than 10,000 colonies estimated (thus >100,000 cfu/mL))"},
      {"measurement": "Grade code Aeromonas sp", "setting": "Aeromonas sp.; 0.5%, 14 days incubation", "result": "4 (1001 to 10,000 colonies (thus 10,000 cfu/mL to 100,000 cfu/mL))"},
      {"measurement": "Grade code Aeromonas sp", "setting": "Aeromonas sp.; 0.5%, 30 days incubation", "result": "4 (1001 to 10,000 colonies (thus 10,000 cfu/mL to 100,000 cfu/mL))"},
      {"measurement": "Grade code Aeromonas sp", "setting": "Aeromonas sp.; 1.25%, 3 days incubation", "result": "4 (1001 to 10,000 colonies (thus 10,000 cfu/mL to 100,000 cfu/mL))"},
      {"measurement": "Grade code Aeromonas sp", "setting": "Aeromonas sp.; 1.25%, 14 days incubation", "result": "4 (1001 to 10,000 colonies (thus 10,000 cfu/mL to 100,000 cfu/mL))"},
      {"measurement": "Grade code Aeromonas sp", "setting": "Aeromonas sp.; 1.25%, 30 days incubation", "result": "4 (1001 to 10,000 colonies (thus 10,000 cfu/mL to 100,000 cfu/mL))"},
      {"measurement": "Grade code S. mutans", "setting": "Streptococcus mutans; 0.5%, 3 days incubation", "result": "5 (More than 10,000 colonies estimated (thus >100,000 cfu/mL))"},
      {"measurement": "Grade code S. mutans", "setting": "Streptococcus mutans; 0.5%, 13 days incubation", "result": "4 (1001 to 10,000 colonies (thus 10,000 cfu/mL to 100,000 cfu/mL))"},
      {"measurement": "Grade code S. mutans", "setting": "Streptococcus mutans; 0.5%, 30 days incubation", "result": "4 (1001 to 10,000 colonies (thus 10,000 cfu/mL to 100,000 cfu/mL))"},
      {"measurement": "Grade code S. mutans", "setting": "Streptococcus mutans; 1.25%, 3 days incubation", "result": "4 (1001 to 10,000 colonies (thus 10,000 cfu/mL to 100,000 cfu/mL))"},
      {"measurement": "Grade code S. mutans", "setting": "Streptococcus mutans; 1.25%, 13 days incubation", "result": "4 (1001 to 10,000 colonies (thus 10,000 cfu/mL to 100,000 cfu/mL))"},
      {"measurement": "Grade code S. mutans", "setting": "Streptococcus mutans; 1.25%, 30 days incubation", "result": "4 (1001 to 10,000 colonies (thus 10,000 cfu/mL to 100,000 cfu/mL))"},
      {"measurement": "Grade code S. mutans", "setting": "Streptococcus mutans; 2.5%, 3 days incubation", "result": "4 (1001 to 10,000 colonies (thus 10,000 cfu/mL to 100,000 cfu/mL))"},
      {"measurement": "Grade code S. mutans", "setting": "Streptococcus mutans; 2.5%, 13 days incubation", "result": "4 (1001 to 10,000 colonies (thus 10,000 cfu/mL to 100,000 cfu/mL))"},
      {"measurement": "Grade code S. mutans", "setting": "Streptococcus mutans; 2.5%, 30 days incubation", "result": "4 (1001 to 10,000 colonies (thus 10,000 cfu/mL to 100,000 cfu/mL))"},
      {"measurement": "Grade code B. subtilis", "setting": "Bacillus subtilis; 0.5%, 3 days incubation", "result": "4 (1001 to 10,000 colonies (thus 10,000 cfu/mL to 100,000 cfu/mL))"},
      {"measurement": "Grade code B. subtilis", "setting": "Bacillus subtilis; 0.5%, 14 days incubation", "result": "4 (1001 to 10,000 colonies (thus 10,000 cfu/mL to 100,000 cfu/mL))"},
      {"measurement": "Grade code B. subtilis", "setting": "Bacillus subtilis; 0.5%, 30 days incubation", "result": "4 (1001 to 10,000 colonies (thus 10,000 cfu/mL to 100,000 cfu/mL))"},
      {"measurement": "Grade code B. subtilis", "setting": "Bacillus subtilis; 1.25%, 3 days incubation", "result": "4 (1001 to 10,000 colonies (thus 10,000 cfu/mL to 100,000 cfu/mL))"},
      {"measurement": "Grade code B. subtilis", "setting": "Bacillus subtilis; 1.25%, 14 days incubation", "result": "4 (1001 to 10,000 colonies (thus 10,000 cfu/mL to 100,000 cfu/mL))"},
      {"measurement": "Grade code B. subtilis", "setting": "Bacillus subtilis; 1.25%, 30 days incubation", "result": "4 (1001 to 10,000 colonies (thus 10,000 cfu/mL to 100,000 cfu/mL))"},
      {"measurement": "Grade code B. subtilis", "setting": "Bacillus subtilis; 2.5%, 3 days incubation", "result": "4 (1001 to 10,000 colonies (thus 10,000 cfu/mL to 100,000 cfu/mL))"},
      {"measurement": "Grade code B. subtilis", "setting": "Bacillus subtilis; 2.5%, 14 days incubation", "result": "4 (1001 to 10,000 colonies (thus 10,000 cfu/mL to 100,000 cfu/mL))"},
      {"measurement": "Grade code B. subtilis", "setting": "Bacillus subtilis; 2.5%, 30 days incubation", "result": "4 (1001 to 10,000 colonies (thus 10,000 cfu/mL to 100,000 cfu/mL))"},
      {"measurement": "Grade code S. epidermidis", "setting": "[1]; 0.5%, 3 days incubation", "result": "4 (1001 to 10,000 colonies (thus 10,000 cfu/mL to 100,000 cfu/mL))"},
      {"measurement": "Grade code S. epidermidis", "setting": "[1]; 0.5%, 13 days incubation", "result": "4 (1001 to 10,000 colonies (thus 10,000 cfu/mL to 100,000 cfu/mL))"},
      {"measurement": "Grade code S. epidermidis", "setting": "[1]; 0.5%, 30 days incubation", "result": "4 (1001 to 10,000 colonies (thus 10,000 cfu/mL to 100,000 cfu/mL))"},
      {"measurement": "Grade code S. epidermidis", "setting": "[1]; 1.25%, 3 days incubation", "result": "4 (1001 to 10,000 colonies (thus 10,000 cfu/mL to 100,000 cfu/mL))"},
      {"measurement": "Grade code S. epidermidis", "setting": "[1]; 1.25%, 13 days incubation", "result": 3.7},
      {"measurement": "Grade code S. epidermidis", "setting": "[1]; 1.25%, 30 days incubation", "result": "4 (1001 to 10,000 colonies (thus 10,000 cfu/mL to 100,000 cfu/mL))"},
      {"measurement": "Grade code S. epidermidis", "setting": "[1]; 2.5%, 3 days incubation", "result": "4 (1001 to 10,000 colonies (thus 10,000 cfu/mL to 100,000 cfu/mL))"},
      {"measurement": "Grade code S. epidermidis", "setting": "[1]; 2.5%, 13 days incubation", "result": "3 (101 to 1000 colonies (thus 1000 to 10,000 cfu/mL))"},
      {"measurement": "Grade code S. epidermidis", "setting": "[1]; 2.5%, 30 days incubation", "result": "4 (1001 to 10,000 colonies (thus 10,000 cfu/mL to 100,000 cfu/mL))"},
      {"measurement": "Grade code S. aureus", "setting": "Staphylococcus aureus; 0.5%, 3 days incubation", "result": "4 (1001 to 10,000 colonies (thus 10,000 cfu/mL to 100,000 cfu/mL))"},
      {"measurement": "Grade code S. aureus", "setting": "Staphylococcus aureus; 0.5%, 14 days incubation", "result": "4 (1001 to 10,000 colonies (thus 10,000 cfu/mL to 100,000 cfu/mL))"},
      {"measurement": "Grade code S. aureus", "setting": "Staphylococcus aureus; 0.5%, 30 days incubation", "result": "4 (1001 to 10,000 colonies (thus 10,000 cfu/mL to 100,000 cfu/mL))"},
      {"measurement": "Grade code S. aureus", "setting": "Staphylococcus aureus; 1.25%, 3 days incubation", "result": "4 (1001 to 10,000 colonies (thus 10,000 cfu/mL to 100,000 cfu/mL))"}
    ]}
  ]
}
